Experimental data as given in patent US12268739B2, “Use of toll-like receptor 2 (TLR-2) agonist for modulating human immune response” (Children's Medical Center Corporation, priority 2018, dated 2025).
Entries after “also recorded” stand apart in the source; their conditions may differ.

What was measured:
THP1-NF-κB cells = test: THP1-NF-κB cell stimulation for 24 hours, secreted luciferase luminescence; format: cell-based, human; settings: for THP1 cells (relative luminescence units, N = 4) Comp at 25 uM / THP1 cells (relative luminescence units, N = 4) Comp at 100 uM: NF-κB-dependent luminescence, 24 hours; for THP1 cells (relative luminescence units, N = 4) Comp at 25 uM: compound at 25 uM; for THP1 cells (relative luminescence units, N = 4) Comp at 100 uM: compound at 100 uM
Description: (§1) THP-1 Cell Line and Culture Conditions. The THP1-Lucia™ cell line was obtained from Invivogen (San Diego, CA). THP1-Lucia cells, which are human monocytic cells derived from the blood of a child with leukemia, contain an NF-kB-inducible Luc reporter construct. This allows NF-kB activation to be measured by quantifying the luminescence from the secreted luciferase enzyme. THP1-Lucia cells were cultured in RPMI 1640 supplemented with 10% non-heat inactivated fetal bovine serum (FBS), 10 mM HEPES, 1.0 mM sodium pyruvate, 50 ug/ml Pen-Strep, and 100 ug/mL Normocin™. Once cultured, the cells were stored in a 37° C. incubator with 5% CO2 and a humidified atmosphere. Cells were passaged every 2-3 days and not allowed to exceed a concentration of 2.0×10^6 cells/ml media.
(§2) PBMCs were isolated from blood using a Ficoll density gradient. PBMCs either used fresh or were stored at 5×10^7 cells per vial in 1 mL RPMI containing 20% autologous plasma and 10% DMSO at −80° C. until use. Stimulation plates were prepared by transferring 0.66 μl of DMSO-dissolved compounds (30 or 7.5 mM) to each well of a round bottom 96-well plate. PBMCs isolated from human adult donors or THP1-NF-κB cells were resuspended at a concentration of 10^5 cells/200 μl of RPMI supplemented with 10% of platelet-poor plasma or THP1 culture medium, respectively. 200 μl of the cell suspension were transferred to each well resulting in a final compound concentration of 100 or 25 μM. After 24 hours of incubation (37° C., 5% CO2), plates were spun down (500×g, room temperature, 5 minutes) and supernatants were harvested for further analysis.

[1] = test system: NF-κB reporter THP1 cells; test: NF-kB-induced luminescence HTS in THP1-Lucia cells (384-well); format: cell-based, human; settings: ranked at 3.3 μM; ~200,000 compounds tested
Excerpt: HTS Overview: To identify immunomodulators/adjuvants that robustly activate human immune cells, ˜200,000 small molecules were screening in a THP1 cell-based assay. The chemical libraries screened included known bioactive and commercial libraries from various sources including commercial libraries such as ChemDiv, ChemBridge, and Asinex. All libraries were owned and provided by the Institute of Chemistry and Cell Biology (ICCB)—Longwood (Harvard Medical School). The project primary screen incorporated two distinct arms: a) a luciferase-based screen which corresponds to the relative activation of the NF-κB reporter; and b) a fluorescence-based screen, corresponding to the phenotypic adherence, a distinct marker of cell activation, of the human monocytic THP-1 cell lines. Described herein are small molecules identified in the screen that induce NF-kB activity based on a luciferase-based THP-1 cell screen.
as §1
NF-kB-induced Luminescence Assay. THP1-Lucia cells between passage 15 and 18 and suspended in culture medium were dispensed into 384-well black clear-bottom plates (Corning 3712) at 30,000 cells/30 μl/well using a Combi liquid dispenser. To allow comparison to a benchmark small molecule with known immune stimulating activity, cells at the same concentration were stimulated with 50 μM R848, a TLR7/8 agonist, in 0.3% DMSO and added to every other well of column 24, which was left empty of cells, by multichannel pipette at the same volume. Five μl of 700 nM Phorbol myristate acetate (PMA) in THP1 culture media and 2.3% DMSO, a known peripheral blood cell mitogen, was added to every other well of column 23 by multichannel pipette (final concentration in well: 100 nM in 0.3% DMSO). Five μl of THP1 culture media with 2.3% DMSO was added to the remaining wells of column 23 by multichannel pipette (final concentration 0.3% DMSO). One hundred nl aliquots of library compounds diluted in 100% DMSO were transferred from their original 384-well plates to the assay plates using a Seiko pin transfer machine. Each library plate was pinned in duplicate, yielding two assay plates with identical conditions for comparison. Plates were then incubated for 24 hours at 37 C with 5% CO2 in humid conditions. Following incubation, 10 μL of supernatant was removed from each well and transferred to a white plate (Corning 3570) using a Vprep liquid transfer machine. 10 μL of recombinant Lucia protein (Invivogen) diluted 1:2000 in THP1 culture media was added to empty well 24P. Using a Combi liquid dispenser, 50 μL/well of Quanti-Luc substrate (Invivogen) diluted 1:3 in sterile water was added to the assay plate. Immediately after adding the substrate, the luminescence was read using a PerkinElmer Envision plate reader.

human TLR2 [2] = target: T1, human TLR2 (Homo sapiens, UniProt O60603); test: HEK-Blue human TLR cell screening (NF-κB SEAP reporter); format: cell-based; settings: compounds at 10 μM, fold change over negative controls
T1 construct: expressed in transfected cells; host or cells: HEK-Blue (human embryonic kidney) cells with an NF-kB-inducible SEAP reporter
T1 sequence (O60603 21-784): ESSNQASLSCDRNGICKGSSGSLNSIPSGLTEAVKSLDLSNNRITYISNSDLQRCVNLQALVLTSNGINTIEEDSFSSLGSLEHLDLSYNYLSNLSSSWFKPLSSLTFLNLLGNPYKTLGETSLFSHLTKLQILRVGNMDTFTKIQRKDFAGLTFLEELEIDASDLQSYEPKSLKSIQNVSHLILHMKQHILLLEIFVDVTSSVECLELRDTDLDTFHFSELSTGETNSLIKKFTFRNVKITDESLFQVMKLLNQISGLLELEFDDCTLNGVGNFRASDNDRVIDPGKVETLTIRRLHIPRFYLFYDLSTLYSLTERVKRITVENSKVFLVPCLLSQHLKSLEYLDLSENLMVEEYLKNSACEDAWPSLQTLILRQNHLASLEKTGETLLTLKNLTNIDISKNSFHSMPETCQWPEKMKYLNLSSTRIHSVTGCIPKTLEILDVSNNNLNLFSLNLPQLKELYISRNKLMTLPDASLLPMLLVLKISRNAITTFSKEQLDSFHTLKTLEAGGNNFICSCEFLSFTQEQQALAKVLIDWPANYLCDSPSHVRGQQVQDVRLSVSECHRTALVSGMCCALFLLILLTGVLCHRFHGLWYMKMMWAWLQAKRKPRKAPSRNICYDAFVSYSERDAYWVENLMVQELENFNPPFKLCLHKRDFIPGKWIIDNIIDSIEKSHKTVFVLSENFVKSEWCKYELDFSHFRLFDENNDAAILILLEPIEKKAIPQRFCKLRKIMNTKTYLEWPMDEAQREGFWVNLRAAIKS
Description: HEK cell screening. Human embryonic kidney (HEK)-Blue cell lines expressing human TLRs (hTLRs) and a secreted embryonic alkaline phosphatase (SEAP) reporter under the control of an NF-κB-inducible promoter were cultured in 96-well plates (50,000-75,000 cells/200 μl/well) and stimulated with the indicated compounds at 10 µM or positive controls. The media added to the wells is designed for detection of NF-κB-induced SEAP expression. After 16-24 hours of incubation optical density (OD) was read at 650 nm on a Molecular Devices SpectraMax 340PC absorbance detector. Positive controls employed in this assay were: heat-killed Listeria monocytogenes (1×10^8 cells/ml) for hTLR2, Poly (I:C) HMW (1 μg/ml) for hTLR3, ? E. coli K12 LPS (100 ng/ml) for hTLR4, S. typhimurium flagellin (100 ng/ml) for hTLR5, CL307 (1 μg/ml) for hTLR7, CL075 (1 μg/ml) for hTLR8 and CpG ODN 2006 (1 μg/ml) for hTLR9.

human adult PBMCs = test: Cytokine production by stimulated human adult PBMCs (ELISA / multiplex); format: cell-based; settings: for Adult PBMCs (median ng/ml) IL-6 (N = 7) / Adult PBMCs (median ng/ml) TNFa (N = 13): human adult PBMCs, compounds at 100 µM (FIG. 7), ELISA
Description: ELISAs and Multiplex-Analyte Assays. Supernatants derived from human PBMCs stimulations were assayed by ELISA for TNF and IL-6 (ThermoFisher Scientific; Waltham, MA, USA). Cytokine and chemokine expression profiles (e.g., IFNγ, IL-9, IL-10, IL-12 (p70), IL-13, IL-1β, IL-23, IL-27, IL-28A, IL-33, IL-6, MIP-3α/CCL20, and TNF) in cell culture supernatants were measured using a customized Milliplex® Human Th17 Magnetic Bead Panel according to the manufacturer's instructions (Millipore, Chicago, IL, USA). Assays were read and analyzed on the Luminex® 100/200TM System and xPOTENT® software (Luminex, Austin, TX). A minimum threshold was set at the minimum detectable concentration for each individual assay, defined as three standard deviations above the mean background.
as §2, with “Stimulation plates were prepared by transferring 0.66 μl of DMSO-dissolved compounds (30 or 7.5 mM) to each well of a round bottom 96-well plate.” left out, “200 μl of the cell suspension were transferred to each well resulting in a final compound concentration of 100 or 25 μM.” left out

human TLR2 [3] = target: T1, human TLR2; test: HEK293 assay for human TLR2 selectivity (NF-κB/SEAP); format: cell-based; settings: 18-24 hours stimulation, titratable
Description: (§3) HEK293 assay for human TLR2 and TLR8 selectivity: Human embryonic kidney (HEK) 293 cells expressing human TLR2 or TLR8 with an NF-κB-responsive secreted embryonic alkaline phosphatase (SEAP) reporter gene were obtained from Invivogen (San Diego, CA). Cells were maintained in RPMI or DMEM with 10% heat inactivated-FBS and selection antibiotics per the manufacturer's instructions. Cells were plated at 5×10^5 cells/96-well and stimulated with indicated agonist(s) for 24 hours. Supernatants were harvested and analyzed for NF-κB/SEAP activation using the QuantiBlue kit (Invivogen). Values are expressed as fold change in OD650 over vehicle-only treated samples.

human TLR8 = target: T2, human TLR8 (Homo sapiens, UniProt Q9NR97); test: HEK293 assay for human TLR8 selectivity (NF-κB/SEAP); format: cell-based; settings: selectivity counter-assay
T2 construct: host or cells: HEK293 cells with an NF-kB-responsive SEAP reporter gene
T2 sequence (Q9NR97 27-1041): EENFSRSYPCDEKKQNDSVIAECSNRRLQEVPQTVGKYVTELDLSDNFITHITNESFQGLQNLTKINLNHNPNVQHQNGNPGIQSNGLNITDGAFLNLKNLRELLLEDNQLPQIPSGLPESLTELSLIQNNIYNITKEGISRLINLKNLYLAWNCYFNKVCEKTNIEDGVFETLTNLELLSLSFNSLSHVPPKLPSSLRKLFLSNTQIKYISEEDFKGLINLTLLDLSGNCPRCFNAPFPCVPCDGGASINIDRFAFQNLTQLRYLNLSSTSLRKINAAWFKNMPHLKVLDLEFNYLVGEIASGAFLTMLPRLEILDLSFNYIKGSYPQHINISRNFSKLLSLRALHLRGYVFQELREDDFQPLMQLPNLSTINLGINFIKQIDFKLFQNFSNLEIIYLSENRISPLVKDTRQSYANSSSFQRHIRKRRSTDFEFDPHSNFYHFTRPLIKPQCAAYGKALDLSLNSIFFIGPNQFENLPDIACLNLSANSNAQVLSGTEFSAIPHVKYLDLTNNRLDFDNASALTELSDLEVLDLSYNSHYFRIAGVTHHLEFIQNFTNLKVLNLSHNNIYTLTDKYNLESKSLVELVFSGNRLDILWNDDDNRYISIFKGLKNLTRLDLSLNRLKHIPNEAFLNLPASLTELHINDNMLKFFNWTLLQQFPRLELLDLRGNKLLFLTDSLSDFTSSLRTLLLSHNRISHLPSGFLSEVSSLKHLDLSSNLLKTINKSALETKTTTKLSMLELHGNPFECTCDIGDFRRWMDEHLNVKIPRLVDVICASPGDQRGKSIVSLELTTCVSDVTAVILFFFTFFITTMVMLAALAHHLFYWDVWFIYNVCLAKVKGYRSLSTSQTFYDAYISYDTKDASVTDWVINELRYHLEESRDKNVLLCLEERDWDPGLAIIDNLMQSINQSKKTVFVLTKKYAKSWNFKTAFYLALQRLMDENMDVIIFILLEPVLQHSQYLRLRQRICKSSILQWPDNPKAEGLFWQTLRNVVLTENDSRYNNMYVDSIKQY
Description: as §3

Structure (SMILES) | Activation of THP1 cells (THP1-NF-κB cells; 384 and 96 well assay) | Efficacy in activating NF-κB in THP1 cells (screening hits) [1] | Activation of human TLR2 (NF-κB activation in TLR-expressing HEK-Blue cells) (human TLR2 [2]) | Activation of human adult PBMCs (cytokine levels by multiplex assay) (human adult PBMCs; 384-well plates, 24 hours, 0.05-33 μM) | Activation of human adult PBMCs (human adult PBMCs; 384 and 96 well assay) | THP1 cells (relative luminescence units, N = 4) Comp at 25 uM (THP1-NF-κB cells) | THP1 cells (relative luminescence units, N = 4) Comp at 100 uM (THP1-NF-κB cells) | TLR2 activation in HEK TLR2 cells (SEAP) (human TLR2 [3]) | TLR8 induction in HEK TLR8 cells (SEAP) (human TLR8) | Adult PBMCs (median ng/ml) IL-6 (N = 7) (human adult PBMCs; 24 hours) [ng/mL] | Adult PBMCs (median ng/ml) TNFa (N = 13) (human adult PBMCs; 24 hours) [ng/mL]
COC(=O)c1c(NC(=O)CN2CCC3(CC2)OCCO3)sc2c1CCCC2 [Compound 004] | induced activation of THP1 cells | most effective NF-κB activators; also recorded: most effective NF-kB activators | activate human TLR2; also recorded: activated the human TLR2-expressing human embryonic kidney (HEK)-Blue cell line | activates human adult PBMCs in a concentration-dependent manner | induced activation | – | – | – | – | – | –
CCOC(=O)c1c(NC(=S)Nc2ccccc2OC)sc2c1CC(C)(C)OC2 [Compound 070] | – | most effective | activate human TLR2 | – | – | – | – | – | – | – | –
CNC(=O)c1c(NC(=O)c2ccc(S(=O)(=O)N(C)C)cc2)sc2c1CCCC2 [Compound 80.3] | – | – | – | – | – | 2835 relative luminescence units | 3630 relative luminescence units | induced TLR2 specific activation | without induction of TLR8 | 0.008 | 0.008
CNC(=O)c1c(NC(=O)c2ccc(S(=O)(=O)N3CCCC3)cc2)sc2c1CCC2 [Compound 80.10] | – | – | – | – | – | 3576 relative luminescence units | 4814 relative luminescence units | induced TLR2 specific activation | without induction of TLR8 | 0.012 | 0.008
CNC(=O)c1c(NC(=O)c2ccc(S(=O)(=O)N(C)C)cc2)sc(C)c1C [Compound 80.15] | – | – | – | – | – | 6369 relative luminescence units | 9715 relative luminescence units | induced TLR2 specific activation | without induction of TLR8 | 0.008 | 0.0225
